Converted amounts (≈) assume the structure as drawn.
How the values were obtained:
Type in all cases: physicochemical
[1] = Solubility of crystalline Form I and Form II in various media
[2] = Bulk-state stability and thermal conversion of crystalline forms; settings: for chemical and physical stability in bulk state: one week when stored at 50° C., 50° C./75% RH and 80° C.
[3] = Slurry competition studies of crystalline forms in 2-propanol; settings: 2-propanol at room temperature
[4] = Fasted state simulated intestinal fluid [pH 6.5]
[5] = Fed state simulated intestinal fluid [pH 5.8]

Structure (SMILES)	Solubility [1, 4]	Solubility [1, 5]	Solubility ([1]; Simulated gastric fluid [pH 2])	Solubility ([1]; Water)	Solubility ([1]; pH 1 (0.1N HCl))	Solubility ([1]; pH 3 citrate buffer)	Solubility ([1]; pH 4.65 acetate buffer)	Solubility ([1]; pH 6.8 phosphate buffer)	chemical and physical stability in bulk state [2]	relative thermodynamic stability (slurry competition) [3]	form conversion on heating ([2]; heated at approximate 142° C.)
CCOC(=O)[C@H](C)N[P@@]1(=O)OC[C@H]2O[C@@H](n3cnc4c(OCC)nc(N)nc43)[C@](C)(F)[C@@H]2O1 [Form I, (S)-ethyl 2-(((2R,4aR,6R,7R,7aR)-6-(2-amino-6-ethoxy-9H-purin-9-yl)-7-fluoro-7-methyl-2-oxidotetrahydro-4H-furo[3,2-d][1,3,2]dioxaphosphinin-2-yl)amino)propanoate]	0.632 [6.36] mg/ml	0.665 [5.80] mg/ml	0.681 [2.11] mg/ml	0.799 [3.82] mg/ml	1.249 [1.39] mg/ml	0.816 [3.04] mg/ml	0.687 [4.67] mg/ml	0.794 [6.70] mg/ml	chemically and physically stable		
CCOC(=O)[C@H](C)N[P@@]1(=O)OC[C@H]2O[C@@H](n3cnc4c(OCC)nc(N)nc43)[C@](C)(F)[C@@H]2O1 [Form II, (S)-ethyl 2-(((2R,4aR,6R,7R,7aR)-6-(2-amino-6-ethoxy-9H-purin-9-yl)-7-fluoro-7-methyl-2-oxidotetrahydro-4H-furo[3,2-d][1,3,2]dioxaphosphinin-2-yl)amino)propanoate]	0.0888 mg/mL (≈ 182 µM)	0.0995 mg/mL (≈ 204 µM)	0.150 mg/mL (≈ 307 µM)	0.0676 mg/mL (≈ 138 µM)	0.246 mg/mL (≈ 504 µM)	0.0740 mg/mL (≈ 152 µM)	0.0557 mg/mL (≈ 114 µM)	0.0551 mg/mL (≈ 113 µM)	chemically and physically stable	thermodynamically more stable than Form I and III	
CCOC(=O)[C@H](C)N[P@@]1(=O)OC[C@H]2O[C@@H](n3cnc4c(OCC)nc(N)nc43)[C@](C)(F)[C@@H]2O1 [Form III, (S)-ethyl 2-(((2R,4aR,6R,7R,7aR)-6-(2-amino-6-ethoxy-9H-purin-9-yl)-7-fluoro-7-methyl-2-oxidotetrahydro-4H-furo[3,2-d][1,3,2]dioxaphosphinin-2-yl)amino)propanoate]											converts to Form II crystalline form

— US20140205566A1, “CYCLIC NUCLEUOSIDE DERIVATIVES AND USES THEREOF” (NOVARTIS AG, priority 2012, published 2014)
